Laboratory results from PMC6009956, “Design, synthesis and biological activity of N^4-phenylsubstituted-7H-pyrrolo[2,3-d]pyrimidin-4-amines as dual inhibitors of aurora kinase A and epidermal growth factor receptor kinase” (Journal of Enzyme Inhibition and Medicinal Chemistry, 2017).
Read-outs that look alike come from different tables or passages of the source.

Legend:
[1] = biological target: T1, aurora A kinase (AURKA) (Homo sapiens, UniProt O14965); assay: ADP-Glo kinase assay, Aurora A; type: biochemical
T1 construct: purchased BPS Bioscience (assay run externally by the vendor)
T1 sequence (O14965 1-403): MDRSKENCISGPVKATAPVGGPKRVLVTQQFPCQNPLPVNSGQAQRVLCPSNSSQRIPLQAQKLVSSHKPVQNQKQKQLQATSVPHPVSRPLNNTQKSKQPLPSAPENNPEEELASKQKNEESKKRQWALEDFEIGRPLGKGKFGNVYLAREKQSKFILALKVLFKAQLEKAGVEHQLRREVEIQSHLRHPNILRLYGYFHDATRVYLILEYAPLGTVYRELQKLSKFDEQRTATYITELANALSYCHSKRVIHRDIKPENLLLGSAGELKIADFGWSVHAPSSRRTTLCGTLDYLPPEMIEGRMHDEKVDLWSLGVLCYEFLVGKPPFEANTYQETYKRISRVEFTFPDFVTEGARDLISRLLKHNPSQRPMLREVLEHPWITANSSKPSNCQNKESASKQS

[2] = biological target: EGFR (Homo sapiens, UniProt P00533); assay: ADP-Glo kinase assay, EGFR; type: biochemical; set-up: purchased BPS Bioscience (assay run externally by the vendor)
Sequence of EGFR (P00533 25-1210): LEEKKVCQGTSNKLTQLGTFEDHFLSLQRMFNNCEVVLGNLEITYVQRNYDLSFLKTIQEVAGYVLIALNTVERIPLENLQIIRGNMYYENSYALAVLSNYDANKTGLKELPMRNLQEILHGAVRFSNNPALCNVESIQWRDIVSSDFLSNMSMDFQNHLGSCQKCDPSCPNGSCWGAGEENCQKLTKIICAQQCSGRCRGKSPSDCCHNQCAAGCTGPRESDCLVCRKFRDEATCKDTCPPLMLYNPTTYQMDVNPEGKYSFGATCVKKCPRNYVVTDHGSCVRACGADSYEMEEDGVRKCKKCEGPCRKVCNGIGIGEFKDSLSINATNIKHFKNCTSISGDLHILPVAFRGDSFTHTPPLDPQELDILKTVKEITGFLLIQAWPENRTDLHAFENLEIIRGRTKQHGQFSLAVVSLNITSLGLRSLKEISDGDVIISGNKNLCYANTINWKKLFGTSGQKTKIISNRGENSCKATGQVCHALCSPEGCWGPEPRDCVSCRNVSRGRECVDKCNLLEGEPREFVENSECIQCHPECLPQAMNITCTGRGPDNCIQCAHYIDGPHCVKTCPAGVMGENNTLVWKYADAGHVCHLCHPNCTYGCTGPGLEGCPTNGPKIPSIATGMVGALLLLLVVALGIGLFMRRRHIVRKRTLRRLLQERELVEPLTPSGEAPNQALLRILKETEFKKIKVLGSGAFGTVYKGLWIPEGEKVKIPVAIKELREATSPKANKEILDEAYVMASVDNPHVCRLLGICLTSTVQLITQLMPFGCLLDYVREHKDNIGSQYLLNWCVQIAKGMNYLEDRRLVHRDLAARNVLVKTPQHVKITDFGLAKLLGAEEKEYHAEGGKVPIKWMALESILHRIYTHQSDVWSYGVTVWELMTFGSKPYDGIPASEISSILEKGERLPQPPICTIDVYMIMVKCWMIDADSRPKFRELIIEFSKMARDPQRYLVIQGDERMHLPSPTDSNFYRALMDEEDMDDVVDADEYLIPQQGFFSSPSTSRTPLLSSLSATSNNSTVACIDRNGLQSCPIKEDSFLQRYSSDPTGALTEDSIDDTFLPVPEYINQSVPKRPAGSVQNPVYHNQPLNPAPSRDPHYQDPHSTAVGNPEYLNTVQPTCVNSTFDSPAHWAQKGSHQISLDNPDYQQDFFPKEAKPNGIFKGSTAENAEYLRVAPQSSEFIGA

IC50 ([1]; 10 µM ATP, triplicate, read-out: AURKA IC50 ± SD): 3130 ± 750 nM
IC50 ([1]; 10 µM ATP/0.2 mg/ml Kemptide, read-out: Aurora A IC50 (dose-response curve, supplement)): 3100 nM
Aurora A % Activity Set1 ([1]; Log[nM] 0): 99%
Aurora A % Activity Set2 ([1]; Log[nM] 0): 100%
Aurora A % Activity Set3 ([1]; Log[nM] 0): 90%
Aurora A % Activity Set1 ([1]; Log[nM] 1.0): 109%
Aurora A % Activity Set2 ([1]; Log[nM] 1.0): 95%
Aurora A % Activity Set3 ([1]; Log[nM] 1.0): 101%
Aurora A % Activity Set1 ([1]; Log[nM] 1.5): 102%
Aurora A % Activity Set2 ([1]; Log[nM] 1.5): 108%
Aurora A % Activity Set3 ([1]; Log[nM] 1.5): 96%
Aurora A % Activity Set1 ([1]; Log[nM] 2.0): 94%
Aurora A % Activity Set2 ([1]; Log[nM] 2.0): 104%
Aurora A % Activity Set3 ([1]; Log[nM] 2.0): 107%
Aurora A % Activity Set1 ([1]; Log[nM] 2.5): 95%
Aurora A % Activity Set2 ([1]; Log[nM] 2.5): 98%
Aurora A % Activity Set3 ([1]; Log[nM] 2.5): 99%
Aurora A % Activity Set1 ([1]; Log[nM] 3.0): 80%
Aurora A % Activity Set2 ([1]; Log[nM] 3.0): 85%
Aurora A % Activity Set3 ([1]; Log[nM] 3.0): 84%
Aurora A % Activity Set1 ([1]; Log[nM] 3.5): 42%
Aurora A % Activity Set2 ([1]; Log[nM] 3.5): 48%
Aurora A % Activity Set3 ([1]; Log[nM] 3.5): 49%
Aurora A % Activity Set1 ([1]; Log[nM] 4.0): 19%
Aurora A % Activity Set2 ([1]; Log[nM] 4.0): 22%
Aurora A % Activity Set3 ([1]; Log[nM] 4.0): 19%
Aurora A % Activity Set1 ([1]; Log[nM] 4.5): 8%
Aurora A % Activity Set2 ([1]; Log[nM] 4.5): 9%
Aurora A % Activity Set3 ([1]; Log[nM] 4.5): 8%
Aurora A % Activity Set1 ([1]; Log[nM] 5.0): 5%
Aurora A % Activity Set2 ([1]; Log[nM] 5.0): 4%
Aurora A % Activity Set3 ([1]; Log[nM] 5.0): 3%
EGFR inhibition (in words) [2]: single-digit nanomolar EGFR inhibition
IC50 ([2]; 10 µM ATP, triplicate, read-out: EGFR IC50 ± SD): 6.63 ± 0.98 nM
IC50 ([2]; 10 µM ATP/0.2 mg/ml Poly-Glu-Tyr, read-out: EGFR IC50 (dose-response curve, supplement)): 6.5 nM
EGFR % Activity Set1 ([2]; Log[nM] 0): 66%
EGFR % Activity Set2 ([2]; Log[nM] 0): 62%
EGFR % Activity Set3 ([2]; Log[nM] 0): 63%
EGFR % Activity Set1 ([2]; Log[nM] 1.0): 36%
EGFR % Activity Set2 ([2]; Log[nM] 1.0): 34%
EGFR % Activity Set3 ([2]; Log[nM] 1.0): 39%
EGFR % Activity Set1 ([2]; Log[nM] 1.5): 17%
EGFR % Activity Set2 ([2]; Log[nM] 1.5): 16%
EGFR % Activity Set3 ([2]; Log[nM] 1.5): 20%
EGFR % Activity Set1 ([2]; Log[nM] 2.0): 8%
EGFR % Activity Set2 ([2]; Log[nM] 2.0): 7%
EGFR % Activity Set3 ([2]; Log[nM] 2.0): 11%
EGFR % Activity Set1 ([2]; Log[nM] 2.5): 6%
EGFR % Activity Set2 ([2]; Log[nM] 2.5): 4%
EGFR % Activity Set3 ([2]; Log[nM] 2.5): 6%
EGFR % Activity Set1 ([2]; Log[nM] 3.0): 3%
EGFR % Activity Set2 ([2]; Log[nM] 3.0): 1%
EGFR % Activity Set3 ([2]; Log[nM] 3.0): 2%
EGFR % Activity Set1 ([2]; Log[nM] 3.5): 2%
EGFR % Activity Set2 ([2]; Log[nM] 3.5): 0%
EGFR % Activity Set3 ([2]; Log[nM] 3.5): 0%
EGFR % Activity Set1 ([2]; Log[nM] 4.0): 1%
EGFR % Activity Set2 ([2]; Log[nM] 4.0): 0%
EGFR % Activity Set3 ([2]; Log[nM] 4.0): 0%
EGFR % Activity Set1 ([2]; Log[nM] 4.5): 0%
EGFR % Activity Set2 ([2]; Log[nM] 4.5): 0%
EGFR % Activity Set3 ([2]; Log[nM] 4.5): 0%
EGFR % Activity Set1 ([2]; Log[nM] 5.0): 0%
EGFR % Activity Set2 ([2]; Log[nM] 5.0): 0%
EGFR % Activity Set3 ([2]; Log[nM] 5.0): 0%
Structure (SMILES): Clc1cccc(Nc2ncnc3[nH]ccc23)c1 [Compound 11, N^4-(3-chlorophenyl)-7H-pyrrolo[2,3-d]pyrimidin-4-amine]
